{"source": "patent US8921388B2", "about": "“Dihydroxypyrimidine carbonic acid derivatives and their use in the treatment, amelioration or prevention of a viral disease” (priority 2012, dated 2014)", "note": "pIC50: −log10 of the molar value."}
{"tested_on": "influenza A virus A/Aichi/2/68 (H3N2) on MDCK cells", "assay": "Cytopathic effect (CPE) assay", "assay_type": "cell-based", "settings": "not given"}
{"compound": "O=C(NCc1ccccc1)c1nc(CC2(c3ccccc3)CCCC2)nc(O)c1O", "CPE result in words": "inactive"}
{"compound": "O=C(O)c1nc(Cc2ccccc2-c2ccccc2)nc(O)c1O", "CPE result in words": "inactive"}
{"compound": "O=C(NCc1ccccc1)c1nc(Cc2ccccc2-c2ccccc2)nc(O)c1O", "CPE result in words": "inactive"}
{"compound": "CNC(=O)c1nc(Cc2ccccc2-c2ccccc2)nc(O)c1O", "CPE result in words": "inactive"}
{"compound": "O=C(O)c1nc(CC(c2ccccc2)c2ccccc2)nc(O)c1O", "CPE result in words": "inactive"}
{"compound": "O=C(O)c1nc(Cc2ccc(F)cc2Br)nc(O)c1O", "CPE result in words": "inactive"}
{"compound": "COC(=O)c1nc(Cc2ccccc2-c2ccccc2C)nc(O)c1O", "CPE result in words": "inactive"}
{"compound": "CCOC(=O)c1nc(Cc2cncn2Cc2ccccc2)nc(O)c1O", "CPE result in words": "inactive"}
{"compound": "COC(=O)c1nc(Cc2ccc(F)cc2Br)nc(O)c1O", "CPE result in words": "inactive"}
{"compound": "NC(=O)c1nc(Cc2ccc(F)cc2Br)nc(O)c1O", "CPE result in words": "inactive"}
{"compound": "CCOC(=O)c1nc(CC2CCCCC2)nc(O)c1O", "CPE result in words": "inactive"}
{"compound": "COC(=O)c1nc(Cc2ccccc2Br)nc(O)c1OC(C)=O", "CPE result in words": "inactive"}
{"compound": "CNC(=O)c1nc(Cc2ccccc2Br)nc(O)c1O", "CPE result in words": "inactive"}
{"compound": "Cc1cccc(-c2ccccc2Cc2nc(O)c(O)c(C(=O)O)n2)c1", "CPE result in words": "inactive"}
{"compound": "Cc1ccc(C)c(-c2ccccc2Cc2nc(O)c(O)c(C(=O)O)n2)c1", "CPE result in words": "inactive"}
{"compound": "CNC(=O)c1nc(CC2CCCCC2)nc(O)c1O", "CPE result in words": "inactive"}
{"compound": "CNC(=O)c1nc(Cc2ccccc2-c2cc(C)ccc2C)nc(O)c1O", "CPE result in words": "inactive"}
{"compound": "O=C(NCc1ccc(Cl)cc1)c1nc(Cc2ccccc2Br)nc(O)c1O", "CPE result in words": "inactive"}
{"compound": "O=C(O)c1nc(CC2CCCCC2)nc(O)c1O", "CPE result in words": "inactive"}
{"compound": "O=C(O)c1nc(Cc2ccccc2Br)nc(O)c1O", "CPE result in words": "inactive"}
{"compound": "Cc1ccccc1Cc1nc(O)c(O)c(C(=O)O)n1", "CPE result in words": "inactive"}
{"compound": "O=C(NCc1ccc(F)cc1)c1nc(Cc2ccccc2Br)nc(O)c1O", "CPE result in words": "inactive"}
{"compound": "O=C(NCc1ccc(Cl)cc1)c1nc(Cc2ccccc2-c2ccccc2)nc(O)c1O", "CPE result in words": "inactive"}
{"compound": "Cc1ccccc1-c1ccccc1Cc1nc(O)c(O)c(C(=O)O)n1", "CPE result in words": "inactive"}
{"compound": "O=C(O)c1nc(Cc2cc(C(F)(F)F)ccc2Br)nc(O)c1O", "CPE result in words": "inactive"}
{"compound": "CNC(=O)c1nc(Cc2ccccc2-c2ccccc2)n(C)c(=O)c1O", "CPE result in words": "inactive"}
{"compound": "Cn1c(CC2(c3ccccc3)CCCC2)nc(C(=O)O)c(O)c1=O", "CPE result in words": "inactive"}
{"compound": "Cn1c(Cc2ccccc2-c2ccccc2)nc(C(=O)O)c(O)c1=O", "CPE result in words": "inactive"}
{"compound": "Cn1c(Cc2ccccc2-c2ccccc2)nc(C(N)=O)c(O)c1=O", "CPE result in words": "inactive"}
{"compound": "CC(C)NC(=O)c1nc(Cc2ccccc2-c2ccccc2)n(C)c(=O)c1O", "CPE result in words": "inactive"}
{"compound": "CNC(=O)c1nc(NS(=O)(=O)Cc2cccc(C)c2)n(C)c(=O)c1O", "CPE result in words": "inactive"}
{"compound": "COC(=O)c1nc(CC2CCCCC2)n(C)c(=O)c1O", "CPE result in words": "inactive"}
{"compound": "CNC(=O)c1nc(NS(=O)(=O)Cc2ccc(C)cc2)n(C)c(=O)c1O", "CPE result in words": "inactive"}
{"compound": "Cn1c(NS(=O)(=O)Cc2ccc(Cl)cc2)nc(C(=O)O)c(O)c1=O", "CPE result in words": "inactive"}
{"compound": "O=C(O)c1c(O)c(=O)nc(Cc2ccccc2)n1Cc1ccccc1", "CPE result in words": "inactive"}
{"compound": "O=C(O)c1c(O)c(=O)nc(Cc2ccccc2Br)n1Cc1ccccc1", "CPE result in words": "inactive"}
{"compound": "CNC(=O)c1nc(NS(=O)(=O)Cc2ccccc2)n(C)c(=O)c1O", "CPE result in words": "inactive"}
{"compound": "CNC(=O)c1nc(NS(=O)(=O)Cc2ccc(Cl)cc2)n(C)c(=O)c1O", "CPE result in words": "inactive"}
{"compound": "COC(=O)c1c(O)c(=O)nc(Cc2ccccc2)n1Cc1ccccc1", "CPE result in words": "inactive"}
{"tested_on": "influenza A virus A/Aichi/2/68 (H3N2) on MDCK cells", "assay": "Cytopathic effect (CPE) assay", "assay_type": "cell-based", "settings": "Influenza A virus, H3N2, MDCK, in Canis lupus familiaris, 48 h"}
{"compound": "COC(=O)c1nc(CC2(c3ccccc3)CCCC2)nc(O)c1O", "pIC50": 4.92}
{"compound": "NC(=O)c1nc(CC2(c3ccccc3)CCCC2)nc(O)c1O", "pIC50": 4.38}
{"compound": "O=C(O)c1nc(CC2(c3ccccc3)CCCC2)nc(O)c1O", "pIC50": 4.31}
{"compound": "CNC(=O)c1nc(CC2(c3ccccc3)CCCC2)nc(O)c1O", "pIC50": 4.66}
{"compound": "CC(C)NC(=O)c1nc(Cc2ccccc2-c2ccccc2)nc(O)c1O", "pIC50": 4.64}
{"compound": "O=C(NCc1ccc(F)cc1)c1nc(Cc2ccccc2-c2ccccc2)nc(O)c1O", "pIC50": 5.00}
{"compound": "O=C(NCCc1ccccc1)c1nc(Cc2ccccc2-c2ccccc2)nc(O)c1O", "pIC50": 5.10}
{"compound": "O=C(c1nc(Cc2ccccc2-c2ccccc2)nc(O)c1O)N1CCCC1", "pIC50": 4.05}
{"compound": "CCOC(=O)c1nc(Cc2ccccc2-c2cc(C)ccc2C)nc(O)c1O", "pIC50": 5.04}
{"compound": "COC(=O)c1nc(Cc2ccccc2-c2cc(C)ccc2C)nc(O)c1O", "pIC50": 4.80}
{"compound": "Cc1ccc(C)c(-c2ccccc2Cc2nc(O)c(O)c(C(=O)OC(C)(C)C)n2)c1", "pIC50": 6.96}
{"compound": "CNC(=O)c1nc(CC2(c3ccccc3)CCCC2)n(C)c(=O)c1O", "pIC50": 4.96}
{"compound": "COC(=O)c1c(O)c(=O)nc(Cc2ccccc2Br)n1Cc1ccccc1", "pIC50": 4.47}
